Results: ChEMBL document CHEMBL1201862, “PubChem BioAssay data set” (2004)
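Protocol summary: plate cells (96-well), add compound at 5 concentrations, incubate 48 h, interpolate endpoints linearly. GI50 marks 50% less growth.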 The source made the active and inactive calls. Rule as the data show it: active = GI50 up to about 1.1 µM and inactive = higher.

How the values were obtained:
Experiment in all cases: DTP human tumour cell line panel, 48 h
U-251 = system: U-251
SNB-75 = system: SNB-75
DU-145 = system: DU-145
HCT-15 = system: HCT-15
ACHN = system: ACHN
UACC-257 = system: UACC-257
HT-29 = system: HT-29
A498 = system: A498
NCI-H226 = system: NCI-H226
BT-549 = system: BT-549
NCI-H23 = system: NCI-H23
UO-31 = system: UO-31
PC-3 = system: PC-3
COLO 205 = system: COLO 205
SW-620 = system: SW-620
OVCAR-8 = system: OVCAR-8
EKVX = system: EKVX
TK-10 = system: TK-10
OVCAR-3 = system: OVCAR-3
HOP-62 = system: HOP-62
SR = system: SR
CCRF-CEM = system: CCRF-CEM
MCF7 = system: MCF7
SK-MEL-2 = system: SK-MEL-2
SK-OV-3 = system: SK-OV-3
MDA-MB-435 = system: MDA-MB-435
T47D = system: T47D
M14 = system: M14
Malme-3M = system: Malme-3M
IGROV-1 = system: IGROV-1
K562 = system: K562
SNB-19 = system: SNB-19
NCI-H460 = system: NCI-H460
SK-MEL-5 = system: SK-MEL-5
SF-295 = system: SF-295
NCI/ADR-RES = system: NCI/ADR-RES
Hs-578T = system: Hs-578T
RPMI-8226 = system: RPMI-8226
MOLT-4 = system: MOLT-4
LOX IMVI = system: LOX IMVI
HCT-116 = system: HCT-116
OVCAR-5 = system: OVCAR-5
SF-539 = system: SF-539
786-0 = system: 786-0
UACC-62 = system: UACC-62
SF-268 = system: SF-268
KM12 = system: KM12
RXF 393 = system: RXF 393
SN12C = system: SN12C
A549 = system: A549
SK-MEL-28 = system: SK-MEL-28
HCC 2998 = system: HCC 2998
OVCAR-4 = system: OVCAR-4
CAKI-1 = system: CAKI-1
MDA-N = system: MDA-N
HL-60 = system: HL-60
MDA-MB-231 = system: MDA-MB-231
HOP-92 = system: HOP-92
NCI-H522 = system: NCI-H522

Measured: GI50

COC12C=CC(CC1)C1C(=O)c3c(C)c(C)n(C)c3C(=O)C12 (stereo not given)
15.4 µM: HCT-15
inactive: U-251 > 100 µM | SNB-75 67.6 µM | DU-145 > 100 µM | ACHN 90.6 µM | UACC-257 35.6 µM | HT-29 > 100 µM | A498 > 100 µM | NCI-H226 25.9 µM | BT-549 > 100 µM | NCI-H23 99.5 µM | UO-31 36.1 µM | PC-3 > 100 µM | COLO 205 > 100 µM | SW-620 > 100 µM | OVCAR-8 > 100 µM | EKVX > 100 µM | TK-10 > 100 µM | OVCAR-3 > 100 µM | HOP-62 > 100 µM | SR 27 µM | CCRF-CEM > 100 µM | MCF7 > 100 µM | SK-MEL-2 > 100 µM | SK-OV-3 > 100 µM | MDA-MB-435 83.2 µM | T47D > 100 µM | M14 > 100 µM | Malme-3M > 100 µM | IGROV-1 73.5 µM | K562 > 100 µM | SNB-19 > 100 µM | NCI-H460 > 100 µM | SK-MEL-5 19.6 µM | SF-295 > 100 µM | NCI/ADR-RES > 100 µM | Hs-578T 70.3 µM | RPMI-8226 85.1 µM | MOLT-4 > 100 µM | LOX IMVI > 100 µM | HCT-116 89.5 µM | OVCAR-5 > 100 µM | SF-539 > 100 µM | 786-0 > 100 µM | UACC-62 40.9 µM | SF-268 > 100 µM | KM12 91.4 µM | RXF 393 > 100 µM

N#Cc1c(/C=C/c2ccccc2)c2c([nH]c1=S)CCCCC2
inactive: U-251 82.2 µM | SNB-75 > 100 µM | DU-145 > 100 µM | ACHN > 100 µM | SN12C > 100 µM | A549 > 100 µM | SK-MEL-28 > 100 µM | UACC-257 > 100 µM | HCC 2998 > 100 µM | HT-29 > 100 µM | A498 > 100 µM | OVCAR-4 > 100 µM | NCI-H226 > 100 µM | NCI-H23 > 100 µM | UO-31 > 100 µM | PC-3 > 100 µM | CAKI-1 > 100 µM | COLO 205 > 100 µM | SW-620 > 100 µM | OVCAR-8 > 100 µM | EKVX > 100 µM | TK-10 > 100 µM | OVCAR-3 > 100 µM | HOP-62 > 100 µM | SR 84.7 µM | MDA-N > 100 µM | CCRF-CEM > 100 µM | MCF7 > 100 µM | SK-MEL-2 > 100 µM | SK-OV-3 > 100 µM | MDA-MB-435 > 100 µM | T47D > 100 µM | M14 > 100 µM | Malme-3M > 100 µM | IGROV-1 > 100 µM | K562 > 100 µM | SNB-19 > 100 µM | NCI-H460 4.9 µM | SK-MEL-5 > 100 µM | SF-295 > 100 µM | NCI/ADR-RES > 100 µM | Hs-578T > 100 µM | HL-60 > 100 µM | RPMI-8226 > 100 µM | MDA-MB-231 > 100 µM | MOLT-4 > 100 µM | LOX IMVI > 100 µM | HOP-92 > 100 µM | HCT-116 > 100 µM | NCI-H522 > 100 µM | OVCAR-5 > 100 µM | SF-539 > 100 µM | 786-0 > 100 µM | SF-268 > 100 µM | KM12 75.5 µM | RXF 393 > 100 µM
> 100 µM: HCT-15
